Laboratory results as given in ChEMBL document CHEMBL1125401, “CoMFA analysis of the interactions of antipicornavirus compounds in the binding pocket of human rhinovirus-14” (J Med Chem, 1992).
In brackets after ≈: the same amount, converted by molar mass.

Test system: rhinovirus B14
Assay: Compound was evaluated for inhibitory effect against human Rhinovirus-14
Assay type: functional

MIC (Rhinovirus B, read-out: MIC) [µM] | MIC [µM] | Compound
0.51 (≈ 0.16 µg/mL) |  | Cc1cc(CCCCCOc2ccc(C3=NCCO3)cc2)on1
0.06 (≈ 0.0267 µg/mL) |  | Cc1cc(-c2nnn(C)n2)cc(C)c1OCCCCCc1cc(COCOCCO)no1
0.03 (≈ 0.0111 µg/mL) |  | CCC1COC(c2ccc(OCCCCCCCc3cc(C)no3)cc2)=N1 (stereo not given)
2.41 (≈ 0.841 µg/mL) |  | Cc1cc(CCCCCOc2ccc(C3=NCCO3)cc2Cl)on1
0.06 (≈ 0.0284 µg/mL) | 0.09 (≈ 0.0426 µg/mL) | OCCOCOCc1cc(CCCCCOc2c(Cl)cc(C3=NCCO3)cc2Cl)on1
0.14 (≈ 0.0477 µg/mL) |  | Cc1cc(CCCCCOc2ccc(-c3nc(C)c(C)o3)cc2)on1
0.05 (≈ 0.0178 µg/mL) |  | Cc1cc(CCCCCCCOc2ccc(C3=NC(C)CO3)cc2)on1 (stereo not given)
0.16 (≈ 0.0593 µg/mL) |  | Cc1cc(CCCCCCCOc2ccc(C3=NC(C)(C)CO3)cc2)on1
1.5 (≈ 0.575 µg/mL) |  | Cc1cc(CCCCCOc2c(Cl)cc(C3=NCCO3)cc2Cl)on1 [WIN-54954]
